# Source: ChEMBL document CHEMBL6178016, “Design, Synthesis, and Biological Evaluation of New PDE4 Inhibitors for the Treatment of Pressure Ulcers” (J Med Chem, 2025)
# Activity calls are given as the source filed them. The calls are words filed in the database; no cut-off is given here.
# How the values were obtained:
# [1] = Toxicity in male Sprague-Dawley rat assessed as pathological changes in kidney by H and E staining based analysis; type: tissue-based; details: in vivo
# [2] = system: RAW264.7; assay: Antiinflammatory activity against mouse RAW264.7 cells assessed as inhibition of LPS-induced TNF-alpha release preincubated for 2 hrs followed by LPS stimulation and measured after 4 hrs by RT-PCR analysis; type: functional, cell-based
# [3] = molecular target: High affinity cAMP-specific and IBMX-insensitive 3',5'-cyclic phosphodiesterase 8A (Homo sapiens, UniProt O60658); assay: Inhibition of PDE8A (unknown origin)
# [4] = system: RAW264.7; assay: Antiinflammatory activity against mouse RAW264.7 cells assessed as increase in cAMP expression at 5 to 20 uM by […] analysis; type: functional, cell-based; details: dose 5-20 µM
# [5] = Oral bioavailability in Sprague-Dawley rat at 10 mg/kg; type: ADME, organism-based; details: in vivo
# [6] = Acute toxicity in female Kunming mouse assessed as effect on pathological changes in kidney at 500 to 4000 mg/kg measured after 14 days by H and E staining based analysis; type: organism-based; details: in vivo, 336 h, dose 500-4000 mg/kg, time 14 day
# [7] = system: Enterococcus faecalis; assay: Antibacterial activity against Enterococcus faecalis BNCC296862 assessed as reduction in bacterial colonies growth at 512 ug/ml measured after 24 hrs by agar plate method; type: functional, organism-based; details: dose 512.0 µg/ml
# [8] = Acute toxicity in male Kunming mouse assessed as effect on pathological changes in spleen at 500 to 4000 mg/kg measured after 14 days by H and E staining based analysis; type: organism-based; details: in vivo, 336 h, dose 500-4000 mg/kg, time 14 day
# [9] = Acute toxicity in female Kunming mouse assessed as effect on pathological changes in spleen at 500 to 4000 mg/kg measured after 14 days by H and E staining based analysis; type: organism-based; details: in vivo, 336 h, dose 500-4000 mg/kg, time 14 day
# [10] = molecular target: cAMP and cAMP-inhibited cGMP 3',5'-cyclic phosphodiesterase 10A (Homo sapiens, UniProt Q9Y233); assay: Inhibition of PDE10A (unknown origin)
# [11] = molecular target: cGMP-dependent 3',5'-cyclic phosphodiesterase (Homo sapiens, UniProt O00408); assay: Inhibition of PDE2A (unknown origin)
# [12] = Acute toxicity in male Kunming mouse assessed as effect on pathological changes in kidney at 500 to 4000 mg/kg measured after 14 days by H and E staining based analysis; type: organism-based; details: in vivo, 336 h, dose 500-4000 mg/kg, time 14 day
# [13] = molecular target: cGMP-specific 3',5'-cyclic phosphodiesterase (Homo sapiens, UniProt O76074); assay: Inhibition of PDE5A (unknown origin)
# [14] = system: Rattus norvegicus; assay: Antiinflammatory activity against male Sprague-Dawley rat pressure ulcer model assessed as wound healing rate at 1.25% administration as ointment measured after 7 days (reference value: 70%); type: functional; details: time 7 day
# [15] = AUC (0 to t) in Sprague-Dawley rat at 5 mg/kg, iv; type: ADME, organism-based; details: in vivo
# [16] = Acute toxicity in male Kunming mouse assessed as effect on pathological changes in heart at 500 to 4000 mg/kg measured after 14 days by H and E staining based analysis; type: organism-based; details: in vivo, 336 h, dose 500-4000 mg/kg, time 14 day
# [17] = molecular target: Dual specificity calcium/calmodulin-dependent 3',5'-cyclic nucleotide phosphodiesterase 1A (Homo sapiens, UniProt P54750); assay: Inhibition of PDE1A (unknown origin)
# [18] = Cmax in Sprague-Dawley rat at 10 mg/kg, po; type: ADME, organism-based; details: in vivo
# [19] = molecular target: Cytochrome P450 3A4 (Homo sapiens, UniProt P08684); assay: Inhibition of human CYP3A4; type: ADME
# [20] = Acute toxicity in female Kunming mouse assessed as effect on pathological changes in lung at 500 to 4000 mg/kg measured after 14 days by H and E staining based analysis; type: organism-based; details: in vivo, 336 h, dose 500-4000 mg/kg, time 14 day
# [21] = Clearance in Sprague-Dawley rat at 5 mg/kg, iv; type: ADME, organism-based; details: in vivo
# [22] = system: RAW264.7; assay: Antiinflammatory activity against mouse RAW264.7 cells assessed as inhibition of LPS-induced NO release preincubated for 2 hrs followed by LPS stimulation and measured after 4 hrs by RT-PCR analysis; type: functional, cell-based
# [23] = molecular target: Cone cGMP-specific 3',5'-cyclic phosphodiesterase subunit alpha' (Homo sapiens, UniProt P51160); assay: Inhibition of PDE6C (unknown origin)
# [24] = system: Rattus norvegicus; assay: Antiinflammatory activity against male Sprague-Dawley rat pressure ulcer model assessed as wound healing rate at 2.5% administration as ointment measured after 7 days (reference value: 70%); type: functional; details: time 7 day
# [25] = Half life in Sprague-Dawley rat at 10 mg/kg, po; type: ADME, organism-based; details: in vivo
# [26] = system: HUVEC; assay: Inhibition of cell migration in HUVEC cells; type: functional, cell-based; details: Homo sapiens, dose 5-20 µM
# [27] = system: Rattus norvegicus; assay: Antiinflammatory activity against male Sprague-Dawley rat pressure ulcer model assessed as appearance of thinner epidermal layer at 0.625 to 2.5% administered as ointment by H and E staining based analysis; type: functional, organism-based
# [28] = system: Rattus norvegicus; assay: Antiinflammatory activity against male Sprague-Dawley rat pressure ulcer model assessed as reduction in TNF-alpha mRNA expression in skin at 1.25% administered as ointment by qRT-PCR analysis; type: functional, organism-based
# [29] = molecular target: Cytochrome P450 2C19 (Homo sapiens, UniProt P33261); assay: Inhibition of human CYP2C19; type: ADME
# [30] = system: RAW264.7; assay: Antiinflammatory activity against LPS induced mouse RAW264.7 cells assessed as increase in CREB phosphorylation expression at 5 to 20 uM by Western blot analysis; type: functional, cell-based; details: dose 5-20 µM
# [31] = AUC (0 to infinity) in Sprague-Dawley rat at 5 mg/kg, iv; type: ADME, organism-based; details: in vivo
# [32] = molecular target: Voltage-gated inwardly rectifying potassium channel KCNH2 (Homo sapiens, UniProt Q12809); assay: Inhibition of human ERG stably expressed in HEK293 cells by manual membrane clamp technique; type: toxicity, cell-based
# [33] = system: Rattus norvegicus; assay: Antiinflammatory activity against male Sprague-Dawley rat pressure ulcer model assessed as decrease in inflammatory cells in dermis at 0.625 to 2.5% administered as ointment by Masson staining based analysis; type: functional, organism-based
# [34] = system: RAW264.7; assay: Cytotoxicity against mouse RAW264.7 cells measured after 24 hrs by CCK-8 method; type: functional
# [35] = Acute toxicity in female Kunming mouse assessed as effect on pathological changes in liver at 500 to 4000 mg/kg measured after 14 days by H and E staining based analysis; type: organism-based; details: in vivo, 336 h, dose 500-4000 mg/kg, time 14 day
# [36] = C0 in Sprague-Dawley rat at 5 mg/kg, iv; type: ADME, organism-based; details: in vivo
# [37] = system: Mus musculus; assay: Antiallodynic activity in female C57/BL mouse assessed as increase in response latency at 60 mg/kg, ip measured after 3 to 7 days by hot plate method; type: functional, organism-based; details: time 3-7 day
# [38] = system: Rattus norvegicus; assay: Antiinflammatory activity against male Sprague-Dawley rat pressure ulcer model assessed as reduction in IL6 mRNA expression in skin at 1.25% administered as ointment by qRT-PCR analysis; type: functional, organism-based
# [39] = Acute toxicity in female Kunming mouse assessed as effect on weight at 500 to 4000 mg/kg measured after 14 days; type: organism-based; details: in vivo, 336 h, dose 500-4000 mg/kg, time 14 day
# [40] = molecular target: High affinity cGMP-specific 3',5'-cyclic phosphodiesterase 9A (Homo sapiens, UniProt O76083); assay: Inhibition of PDE9A (unknown origin)
# [41] = system: Rattus norvegicus; assay: Antiinflammatory activity against male Sprague-Dawley rat pressure ulcer model assessed as increase in number of fibroblasts at 0.625 to 2.5% administered as ointment by H and E staining based analysis; type: functional, organism-based
# [42] = Toxicity in male Sprague-Dawley rat assessed as pathological changes in liver by H and E staining based analysis; type: tissue-based; details: in vivo
# Chain of cAMP and cAMP-inhibited cGMP 3',5'-cyclic phosphodiesterase 10A (Q9Y233 whole entry): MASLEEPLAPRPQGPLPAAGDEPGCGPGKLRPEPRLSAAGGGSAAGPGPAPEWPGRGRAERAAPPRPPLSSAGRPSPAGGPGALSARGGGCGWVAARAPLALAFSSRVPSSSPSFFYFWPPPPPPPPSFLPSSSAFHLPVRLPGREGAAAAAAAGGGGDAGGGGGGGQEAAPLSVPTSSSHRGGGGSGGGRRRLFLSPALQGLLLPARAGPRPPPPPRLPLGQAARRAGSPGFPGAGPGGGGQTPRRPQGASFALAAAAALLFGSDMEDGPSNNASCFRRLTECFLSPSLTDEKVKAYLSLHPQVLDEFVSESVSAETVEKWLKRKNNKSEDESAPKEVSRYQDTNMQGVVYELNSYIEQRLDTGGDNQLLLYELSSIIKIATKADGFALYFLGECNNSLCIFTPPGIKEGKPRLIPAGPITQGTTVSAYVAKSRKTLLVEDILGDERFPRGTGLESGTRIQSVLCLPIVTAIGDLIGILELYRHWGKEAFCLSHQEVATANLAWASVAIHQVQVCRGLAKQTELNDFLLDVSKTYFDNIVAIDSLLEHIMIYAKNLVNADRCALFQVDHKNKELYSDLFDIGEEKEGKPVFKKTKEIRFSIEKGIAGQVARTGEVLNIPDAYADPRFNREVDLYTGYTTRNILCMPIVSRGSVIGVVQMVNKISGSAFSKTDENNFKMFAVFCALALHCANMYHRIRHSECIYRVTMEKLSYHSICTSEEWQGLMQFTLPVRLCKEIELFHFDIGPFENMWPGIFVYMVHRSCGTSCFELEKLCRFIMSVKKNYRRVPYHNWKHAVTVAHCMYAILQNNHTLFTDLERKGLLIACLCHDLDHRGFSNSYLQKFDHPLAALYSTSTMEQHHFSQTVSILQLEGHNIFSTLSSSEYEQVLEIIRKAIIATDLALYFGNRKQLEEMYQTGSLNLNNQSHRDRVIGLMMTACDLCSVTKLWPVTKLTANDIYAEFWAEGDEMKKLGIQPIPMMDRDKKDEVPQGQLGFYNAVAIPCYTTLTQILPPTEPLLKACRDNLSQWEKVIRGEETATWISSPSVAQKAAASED
# Chain of High affinity cAMP-specific and IBMX-insensitive 3',5'-cyclic phosphodiesterase 8A (O60658 whole entry): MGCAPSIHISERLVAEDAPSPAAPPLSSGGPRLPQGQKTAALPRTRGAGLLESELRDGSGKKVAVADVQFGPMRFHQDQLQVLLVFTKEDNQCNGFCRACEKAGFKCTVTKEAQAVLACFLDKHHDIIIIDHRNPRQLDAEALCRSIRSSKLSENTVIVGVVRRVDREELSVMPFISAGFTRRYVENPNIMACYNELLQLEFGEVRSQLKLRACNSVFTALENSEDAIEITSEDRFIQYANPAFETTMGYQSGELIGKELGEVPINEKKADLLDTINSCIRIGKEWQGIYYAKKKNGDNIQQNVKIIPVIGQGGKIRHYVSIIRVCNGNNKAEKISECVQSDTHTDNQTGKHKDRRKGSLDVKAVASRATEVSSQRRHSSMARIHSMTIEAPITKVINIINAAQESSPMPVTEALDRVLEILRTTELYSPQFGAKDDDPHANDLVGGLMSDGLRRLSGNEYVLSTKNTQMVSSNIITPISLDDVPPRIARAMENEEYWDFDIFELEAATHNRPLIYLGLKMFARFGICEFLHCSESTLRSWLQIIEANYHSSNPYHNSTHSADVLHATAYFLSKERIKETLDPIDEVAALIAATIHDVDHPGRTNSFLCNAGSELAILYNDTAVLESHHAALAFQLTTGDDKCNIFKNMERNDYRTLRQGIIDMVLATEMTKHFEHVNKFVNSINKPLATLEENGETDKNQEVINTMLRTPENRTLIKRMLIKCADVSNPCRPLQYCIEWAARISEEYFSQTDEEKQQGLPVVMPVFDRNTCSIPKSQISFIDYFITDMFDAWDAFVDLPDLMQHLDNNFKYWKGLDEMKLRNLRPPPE
# Chain of Cytochrome P450 3A4 (P08684 whole entry): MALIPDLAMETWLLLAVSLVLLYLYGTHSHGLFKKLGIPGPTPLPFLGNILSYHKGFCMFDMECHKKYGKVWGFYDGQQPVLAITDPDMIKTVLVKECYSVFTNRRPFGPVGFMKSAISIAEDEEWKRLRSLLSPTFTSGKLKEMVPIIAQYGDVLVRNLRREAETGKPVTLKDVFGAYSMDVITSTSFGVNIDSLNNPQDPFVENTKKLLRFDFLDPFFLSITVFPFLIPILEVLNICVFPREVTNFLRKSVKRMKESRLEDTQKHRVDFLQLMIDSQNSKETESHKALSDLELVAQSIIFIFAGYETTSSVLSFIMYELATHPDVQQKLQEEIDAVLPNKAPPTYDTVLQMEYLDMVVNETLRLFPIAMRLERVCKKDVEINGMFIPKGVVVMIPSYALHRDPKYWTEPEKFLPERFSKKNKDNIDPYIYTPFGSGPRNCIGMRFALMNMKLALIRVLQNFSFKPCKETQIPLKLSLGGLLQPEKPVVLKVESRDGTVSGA
# Chain of Cone cGMP-specific 3',5'-cyclic phosphodiesterase subunit alpha' (P51160 whole entry): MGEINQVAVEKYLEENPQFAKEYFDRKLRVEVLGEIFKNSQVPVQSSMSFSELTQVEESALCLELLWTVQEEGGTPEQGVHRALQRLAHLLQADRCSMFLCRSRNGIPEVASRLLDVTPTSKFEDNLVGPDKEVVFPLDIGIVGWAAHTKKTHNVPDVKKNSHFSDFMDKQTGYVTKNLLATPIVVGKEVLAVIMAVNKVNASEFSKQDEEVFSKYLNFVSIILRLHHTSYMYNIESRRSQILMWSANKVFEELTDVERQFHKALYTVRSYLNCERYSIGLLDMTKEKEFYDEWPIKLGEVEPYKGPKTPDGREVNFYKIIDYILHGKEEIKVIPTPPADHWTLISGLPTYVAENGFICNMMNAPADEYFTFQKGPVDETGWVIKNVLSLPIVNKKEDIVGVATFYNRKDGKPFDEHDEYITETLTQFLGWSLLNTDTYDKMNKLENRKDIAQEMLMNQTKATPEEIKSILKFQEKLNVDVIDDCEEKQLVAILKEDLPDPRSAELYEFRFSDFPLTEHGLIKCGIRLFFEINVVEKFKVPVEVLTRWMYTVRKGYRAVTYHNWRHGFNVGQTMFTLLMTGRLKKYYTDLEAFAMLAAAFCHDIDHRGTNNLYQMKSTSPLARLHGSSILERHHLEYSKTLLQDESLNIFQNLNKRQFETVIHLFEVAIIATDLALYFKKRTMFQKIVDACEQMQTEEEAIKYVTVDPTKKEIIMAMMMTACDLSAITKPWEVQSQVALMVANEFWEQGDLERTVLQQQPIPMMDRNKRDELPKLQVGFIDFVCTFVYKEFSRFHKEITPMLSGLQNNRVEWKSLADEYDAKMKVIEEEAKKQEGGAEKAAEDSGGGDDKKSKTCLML
# Chain of High affinity cGMP-specific 3',5'-cyclic phosphodiesterase 9A (O76083 whole entry): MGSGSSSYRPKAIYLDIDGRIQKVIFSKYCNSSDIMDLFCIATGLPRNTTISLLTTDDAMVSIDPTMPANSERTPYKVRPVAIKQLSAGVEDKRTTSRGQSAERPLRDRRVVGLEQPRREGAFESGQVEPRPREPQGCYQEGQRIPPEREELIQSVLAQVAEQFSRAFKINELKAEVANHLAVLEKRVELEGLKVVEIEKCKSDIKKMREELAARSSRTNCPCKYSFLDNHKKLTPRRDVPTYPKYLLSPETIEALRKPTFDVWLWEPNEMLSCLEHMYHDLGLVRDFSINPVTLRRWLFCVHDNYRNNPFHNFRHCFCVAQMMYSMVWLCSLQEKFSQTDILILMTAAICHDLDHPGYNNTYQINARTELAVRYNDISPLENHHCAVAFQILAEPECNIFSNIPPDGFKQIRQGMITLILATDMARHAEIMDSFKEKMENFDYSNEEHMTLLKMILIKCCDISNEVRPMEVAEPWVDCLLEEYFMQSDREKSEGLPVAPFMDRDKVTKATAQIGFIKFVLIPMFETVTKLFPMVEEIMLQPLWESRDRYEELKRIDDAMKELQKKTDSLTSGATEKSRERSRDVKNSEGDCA
# Chain of cGMP-dependent 3',5'-cyclic phosphodiesterase (O00408 whole entry): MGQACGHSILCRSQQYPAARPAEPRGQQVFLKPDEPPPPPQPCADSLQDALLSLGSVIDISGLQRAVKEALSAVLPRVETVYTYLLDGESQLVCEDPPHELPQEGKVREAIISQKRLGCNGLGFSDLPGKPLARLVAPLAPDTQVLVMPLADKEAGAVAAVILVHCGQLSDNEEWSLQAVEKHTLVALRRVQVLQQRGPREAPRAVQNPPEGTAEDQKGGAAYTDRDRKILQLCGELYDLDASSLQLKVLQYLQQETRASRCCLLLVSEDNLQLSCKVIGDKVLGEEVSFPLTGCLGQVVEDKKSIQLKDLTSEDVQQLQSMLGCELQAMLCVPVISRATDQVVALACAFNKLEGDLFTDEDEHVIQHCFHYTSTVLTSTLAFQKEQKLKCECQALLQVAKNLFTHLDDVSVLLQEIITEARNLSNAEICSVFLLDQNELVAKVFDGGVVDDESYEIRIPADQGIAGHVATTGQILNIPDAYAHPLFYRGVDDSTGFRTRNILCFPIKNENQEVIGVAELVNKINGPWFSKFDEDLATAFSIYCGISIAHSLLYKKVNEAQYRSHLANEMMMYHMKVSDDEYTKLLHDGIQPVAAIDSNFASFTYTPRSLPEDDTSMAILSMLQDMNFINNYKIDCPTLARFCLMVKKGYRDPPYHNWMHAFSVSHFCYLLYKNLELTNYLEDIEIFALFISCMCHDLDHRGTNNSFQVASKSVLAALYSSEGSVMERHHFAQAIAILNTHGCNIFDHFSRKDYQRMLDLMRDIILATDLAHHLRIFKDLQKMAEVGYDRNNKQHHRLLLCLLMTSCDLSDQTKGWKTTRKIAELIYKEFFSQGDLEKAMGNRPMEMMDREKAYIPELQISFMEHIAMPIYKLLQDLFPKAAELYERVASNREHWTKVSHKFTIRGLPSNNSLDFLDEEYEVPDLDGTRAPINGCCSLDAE
smiles,measurement,setting,value
Cn1c(=O)c2c(ncn2CCC(=O)NNC(=O)c2cc3nccc(-c4ccc(OC(F)F)c(OCC5CC5)c4)n3n2)n(C)c1=O,Activity,[1],Non-toxic
same,IC50,[2],13.3 µM
same,IC50,[3],1.72 µM
same,Activity,[4],Active
same,bioavailability,[5],5.5%
same,Activity,[6],Non-toxic
same,Activity,[7],Active
same,Activity,[8],Non-toxic
same,Activity,[9],Non-toxic
same,IC50,[10],1.12 µM
same,IC50,[11],> 50 µM
same,Activity,[12],Non-toxic
same,IC50,[13],> 50 µM
same,Activity,[14],93%
same,AUC(0-t),[15],235 ng·h/mL
same,Activity,[16],Non-toxic
same,IC50,[17],> 50 µM
same,Cmax,[18],14.4 ng/mL
same,IC50,[19],> 50 µM
same,Activity,[20],Non-toxic
same,clearance,[21],358 mL/min/kg
same,IC50,[22],2.32 µM
same,IC50,[23],> 50 µM
same,Activity,[24],81%
same,half-life,[25],1.4 h
same,inhibition,[26],Dose-dependent-effect
same,Activity,[27],Active
same,Activity,[28],Active
same,IC50,[29],> 50 µM
same,Activity,[30],Active
same,AUC(0-inf),[31],236 ng·h/mL
same,IC50,[32],> 10 µM
same,Activity,[33],Active
same,CC50,[34],> 90 µM
same,Activity,[35],Non-toxic
same,C0,[36],1140 ng/mL
same,Activity,[37],Active
same,Activity,[38],Active
same,Activity,[39],Non-toxic
same,IC50,[40],> 50 µM
same,Activity,[41],Active
same,Activity,[42],Non-toxic
